Key:
[1] = target: T1, hM1 mAChR (Homo sapiens, UniProt P11229); experiment: Whole-cell [3H]NMS equilibrium competition radioligand binding; settings: [3H]NMS binding; for α (binding cooperativity with ACh): antilog, in parentheses
T1 construct: expressed in transfected cells
T1 sequence (P11229 1-460): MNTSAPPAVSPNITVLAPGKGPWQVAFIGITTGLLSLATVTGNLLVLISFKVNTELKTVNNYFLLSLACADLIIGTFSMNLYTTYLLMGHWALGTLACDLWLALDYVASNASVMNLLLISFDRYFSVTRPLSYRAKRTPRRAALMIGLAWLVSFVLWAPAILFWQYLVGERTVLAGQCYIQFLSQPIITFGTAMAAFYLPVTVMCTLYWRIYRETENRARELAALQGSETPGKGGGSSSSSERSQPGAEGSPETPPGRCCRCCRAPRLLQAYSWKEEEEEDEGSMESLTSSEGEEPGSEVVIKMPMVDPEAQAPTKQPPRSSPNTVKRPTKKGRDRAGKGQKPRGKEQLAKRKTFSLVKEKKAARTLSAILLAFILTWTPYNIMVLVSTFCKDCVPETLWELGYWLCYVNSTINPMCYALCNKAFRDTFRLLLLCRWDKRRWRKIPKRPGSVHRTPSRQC
Description: To determine the affinity (pKB) of the allosteric modulators for the allosteric site, and their binding cooperativity with ACh (log αACh) at the M1 mAChR, whole cell equilibrium competition binding studies were performed, using [^3H]NMS to label the orthosteric site.
FlpIn Chinese hamster ovary (CHO) cells stably expressing the hM1 mAChR were grown in Dulbecco’s modified Eagle’s medium (DMEM) (Invitrogen, Carlsbad, CA) supplemented with 5% foetal bovine serum (FBS) (Thermo-Trace, Melbourne, Australia) and 300 μg/mL G418 (Invitrogen, Carlsbad, CA). The cells were plated at 50,000 cells per well of 96-well white clear bottom plates (Greiner Bio-one, Kremsmünster, Austria), and were grown overnight. The following day, cells were washed twice with Phosphate Buffered Saline (PBS), and incubated with increasing concentrations of ACh (Sigma) in the absence or presence of increasing concentrations of each modulator and 0.2 nM [^3H]NMS (PerkinElmer Life Sciences) in binding buffer (20 mM HEPES, 100 mM NaCl, 10 mM MgCl2, pH 7.4) for 5 h at room temperature. Nonspecific binding was determined using atropine at the final concentration of 10 μM. The assays were terminated by rapid removal of the unbound radioligand followed by two washes with 100 μL/well ice-cold 0.9% NaCl buffer. Radioactivity was determined by addition of 100 μL/well Ultima gold (PerkinElmer Life Sciences) and counting in a MicroBeta plate reader (PerkinElmer Life Sciences).
Binding interaction studies with allosteric ligands were fitted to the following allosteric ternary complex model [Eq. (2)][15] Y=Bmax|A|/[Λ]+[KAKB/α^′[B]+KB][1+[I]/K1+[B]/KB+α[I][B]/KIKB] where Bmax is the total number of receptors, [A], [B] and [I] denote the concentrations of radioligand, allosteric modulator, and orthosteric ligand, respectively; KA, KB and KI are their respective equilibrium dissociation constants. α’ and α are the affinity cooperativity factors between the allosteric ligand and radioligand or the allosteric modulator and ACh, respectively. Values of α or α’ > 1 denote positive cooperativity, values < 1 but > 0 denote negative cooperativity, and a value of 1 indicates neutral coopera-tivity.

[2] = target: T2, M1 mAChR (Homo sapiens, UniProt P11229); experiment: β-arrestin 2 recruitment assay (BRET); format: cell-based; settings: for αβ (functional cooperativity with ACh) / τB (intrinsic efficacy of the modulator): antilog, in parentheses; for log τB (logarithm of intrinsic efficacy of the modulator) / log αβ (logarithm of functional cooperativity between ACh and modulator): operational model; for log αβ (logarithm of functional cooperativity between ACh and modulator): pKB constrained to binding value
T2 construct: expressed in transfected cells; host or cells: parental FlpIn CHO cells (transient, PEI)
T2 sequence (P11229 1-460): T1 sequence (P11229 1-460)
Text: (§1) The compounds were then fully characterised in two functional assays (Figure 2C and D); the Gq-coupled IP1 accumulation assay (Figure S2), which was used for the initial screening of the compounds, and a β-arrestin 2 recruitment assay (Figure S3). The operational efficacy (τB) values for the modulators and their functional cooperativity estimates with ACh (logαβACh) at both signalling pathways were estimated by applying an operational model of allosterism and agonism to the data [Eq. (3)],[16] and are listed in Table 5.
Parental FlpIn CHO cells were plated at 30000 cells/well of 96-well white Culture plates (Perkin Elmer Life Sciences) and transiently transfected with 10 ng/well of M1 Renilla luciferase (Rluc)-8 and 40 ng/well of YFP-β-arrestin 2 using linear polyethyleneimine (PEI/DNA ratio 6:1) diluted in 150 mM NaCl. DNA:PEI complexes were formed by 15 min incubation at room temperature then added to the cells and incubated at 37°C for 24 h prior to use. Cells were then washed and equilibrated in Hanks’ balanced salt solution for 1 h at 37°C. Coelenterazine h at a final concentration of 5 μM was added to each well, followed by addition of increasing concentrations of ACh in the absence or presence of increasing concentrations of each modulator. Lumines-cence and fluorescence signals were measured 5 min after agonist stimulation using the LUMIstar Omega plate reader (BMG LabTech, Offenburg, Germany). […] Data were then normalized to the maximum response to ACh.
(§2) Functional interaction studies between ACh and allosteric modulators in IP1 and β-arrestin 2 recruitment assays were analysed according to a three-parameter logistic equation or the following operational model of allosterism and agonism [Eq. (3)].[16] E=Basal+(Em−Basal)([A](KB+αβ[B])+τB[B]EC50)^n/EC50n(KB+[B])^n+([A](KB+αβ[B])+τB[B]EC50)^n where Em is the maximal possible system response, and Basal is the response in the absence of agonist. [A] and [B] are concentrations of orthosteric and allosteric ligands, respectively. KB is the equilibrium dissociation constant of allosteric ligand, and EC50 is the concentration of orthosteric agonist required to achieve half maximal response. α and β represent the magnitude of the allosteric effects on orthosteric ligand affinity and efficacy, respectively; τB is the efficacy of allosteric ligand, and n is the slope factor of the transducer function that links occupancy to response.

[3] = target: T1, hM1 mAChR; experiment: IP1 accumulation assay (ACh concentration-response curves in absence or presence of modulator); format: cell-based; settings: for αβ (functional cooperativity with ACh) / τB (intrinsic efficacy of the modulator) / log τB (logarithm of intrinsic efficacy of the modulator) / log αβ (logarithm of functional cooperativity between ACh and modulator): IP1 accumulation; for αβ (functional cooperativity with ACh) / τB (intrinsic efficacy of the modulator): antilog, in parentheses; for log τB (logarithm of intrinsic efficacy of the modulator) / log αβ (logarithm of functional cooperativity between ACh and modulator): operational model; for log αβ (logarithm of functional cooperativity between ACh and modulator): pKB constrained to binding value
Description: Functional activity of the synthesized analogues as racemic mixtures was investigated in IP1 accumulation assays at the M1 mAChR, as described previously.[13–14] ACh concentration-response curves were generated in the absence or presence of a 1 and 10 μM concentration of each modulator. The change in baseline activity (Δbaseline) is an approximate measure of direct allosteric agonism (τB), whereas the pEC50 shift (ΔpEC50) is an approximate measure of functional cooperativity (αβ) of each modulator with ACh in the investigated signalling pathway. We aimed to identify modulators with various degrees of allosteric agonism and modulatory effects on ACh response, as these could generate distinct in vivo outcomes for applications in different conditions in the CNS or gastrointestinal (GI) tract.[[10g,h,j]]
as §1
FlpIn CHO cells stably expressing the hM1 mAChR were seeded at 25000 per well of 96-well transparent cell culture plates and grown overnight. […] Cells were then stimulated with increasing concentration of ACh in the absence or presence of increasing concentrations of each modulator for 1 h at 37°C. […] Seven μL of cell lysates were transferred into wells of 384-well Proxiplates (Perki-nElmer Life Sciences), and IP1 levels were measured using the IP-One assay kit (Cisbio, Codolet, France). […] The signal was expressed as the HTRF ratio, interpolated from the standard curve, and normalized to the maximum response to ACh.
Changes in both baseline and pEC50 were quantified by subtracting the estimates at each M1 PAM concentrations with the control values. Propagation of the error on baseline and potency values were determined as follows [Eq. (1)]: σΔ=σPAM2+σcont.2 where σΔ is the standard error of the mean (SEM) for the change in value, and σPAM and σcont. are the SEM from the three-parameter logistic equation analysis in presence or absence of M1 PAM, respectively.
as §2

Structure (SMILES): COc1ccc(Cn2cc(C(=O)O)c(=O)c3ccccc32)cc1 [BQCA, reference compound]
- α (binding cooperativity with ACh) [1]: 245
- log αACh (logarithm of binding cooperativity between ACh and modulator) ([1]; mean ± SEM): 2.39±0.22
- αβ (functional cooperativity with ACh) [2]: 89
- τB (intrinsic efficacy of the modulator) [2]: 1
- log τB (logarithm of intrinsic efficacy of the modulator) [2]: –0.03±0.10
- log αβ (logarithm of functional cooperativity between ACh and modulator) [2]: 1.95±0.19
- αβ (functional cooperativity with ACh) [3]: 389
- τB (intrinsic efficacy of the modulator) [3]: 6
- log τB (logarithm of intrinsic efficacy of the modulator) [3]: 0.76±0.03
- log αβ (logarithm of functional cooperativity between ACh and modulator) [3]: 2.59±0.07

Structure (SMILES): Cn1cc(-c2ccc(COc3ccccc3-c3ccn(C4CCCCC4O)c(=O)c3)cc2)cn1 (stereo not shown) [Compound 1, 1-(2-Hydroxycyclohexyl)-4-(2-((4-(1-methyl-1H-pyrazol-4-yl)-benzyl)oxy)phenyl)pyridin-2(1H)-one]
- Kb ([1]; allosteric ternary complex model, mean ± SEM, read-out: pKB (negative logarithm of the allosteric modulator equilibrium dissociation constant) (converted)): 11 µM
- α (binding cooperativity with ACh) [1]: 112
- log αACh (logarithm of binding cooperativity between ACh and modulator) ([1]; mean ± SEM): 2.05±0.17
- αβ (functional cooperativity with ACh) [2]: 65
- τB (intrinsic efficacy of the modulator) [2]: 1
- log τB (logarithm of intrinsic efficacy of the modulator) [2]: –0.01±0.05
- log αβ (logarithm of functional cooperativity between ACh and modulator) [2]: 1.81±0.09
- ΔpEC50 [1 μM]: change in ACh pEC50 in presence of M1 PAM compared to control curve ([3]; 1 μM modulator, FlpIn CHO hM1 cells, mean ± SEM, 3 experiments): 0.88±0.09
- activation at 1 µM ([3]; 1 μM modulator, FlpIn CHO hM1 cells, mean ± SEM, 3 experiments, read-out: Δbaseline [1 μM]: change in basal response in presence of M1 PAM compared to control curve): 15.8 ± 2.3%
- ΔpEC50 [10 μM]: change in ACh pEC50 in presence of M1 PAM compared to control curve ([3]; 10 μM modulator, FlpIn CHO hM1 cells, mean ± SEM, 3 experiments): 1.31±0.15
- activation at 10 µM ([3]; 10 μM modulator, FlpIn CHO hM1 cells, mean ± SEM, 3 experiments, read-out: Δbaseline [10 μM]: change in basal response in presence of M1 PAM compared to control curve): 58.3 ± 2.3%
- αβ (functional cooperativity with ACh) [3]: 100
- τB (intrinsic efficacy of the modulator) [3]: 4
- log τB (logarithm of intrinsic efficacy of the modulator) [3]: 0.60±0.03
- log αβ (logarithm of functional cooperativity between ACh and modulator) [3]: 2.00±0.10

Source: PMC7616174, “Development of Novel 4-Arylpyridin-2-one and 6-Arylpyrimidin-4-one Positive Allosteric Modulators of the M1 Muscarinic Acetylcholine Receptor” (ChemMedChem, 2020)
